Results taken from patent US20110021507A1, “INHIBITING ANTIPSYCHOTIC-INDUCED WEIGHT GAIN” (Theracos, Inc., priority 2009, published 2011).

Assays:
cardiac receptors = settings: cited from earlier work
cortical receptors = settings: cited from earlier work
muscarinic receptor = settings: cited from earlier work
[1] = patients being administered olanzapine; cited from earlier work
[2] = Olanzapine-induced weight gain in a rat model (Alzet minipumps); assay type: in vivo, Wistar-Han female rats; settings: OLZ 10 mg/kg/day; for effect on weight gain (main effect of Treatment, 2-way repeated measures ANOVA): OLZ vs VEH p=0.042, OLZ vs OLZ+TZP p=0.01, TZP 5 mg/kg/day
Procedure: Arrow indicates pump implantation and solid bar over the x-axis indicates the drug treatment interval. Telenzepine was administered at a dose of 5 mg/kg/day. […] The solid line indicates the effect of OLZ administered alone (OLZ-Induced weight gain), while dashed lines indicate groups receiving TZP, either alone (dashed line) or co-administered with the 10.0 mg/kg OLZ dose (dot-dash-dot line). The dotted line indicates the weight gain in animals receiving only Vehicle treatments. […] The rats were divided into the following four groups: Group 1—Control: Vehicle (NMP:DMSO:PEG) alone Group 2—OLZ (10 mg/kg/day) alone Group 3—TZP (5 mg/kg/day) alone Group 4—OLZ (10 mg/kg/day)+TZP (5 mg/kg/day) […] Two 2-way repeated measures ANOVAs were run: 1) Comparing No Treatment (VEH) to OLZ alone (addressing the question of whether or not OLZ induced weight gain), 2) Comparing OLZ alone to OLZ+TZP (addressing the question of whether or not TZP co-administration prevented OLZ-Induced weight gain).

[3] = at 90 degrees; cited from earlier work

Cc1scc2c1N(C(=O)CN1CCN(C)CC1)c1ccccc1NC2=O [(+) form of telenzepine]
factor by which the (+) form is more potent than the (−) form (cardiac receptors): 50 | factor by which the (+) form is more effective than the (−) isomer (cortical receptors): 400 | antimuscarinic activity (muscarinic receptor): potent antimuscarinic activity

Cc1scc2c1N(C(=O)CN1CCN(C)CC1)c1ccccc1NC2=O [(−) form]
antimuscarinic activity (muscarinic receptor): considerably less active

Cc1cc2c(s1)Nc1ccccc1N=C2N1CCN(C)CC1 [Olanzapine, 2-methyl-4-(4-methyl-1-piperazinyl)-10H-thieno[2,3-b][1,5]benzodiazepine]
patients experiencing bodyweight gain of greater than 7% [1]: ≤ 30% | effect on weight gain (main effect of Treatment, 2-way repeated measures ANOVA) [2]: induced a significant amount of weight gain over No Treatment controls | difference in weight gain versus Vehicle treated rats ([2]; Treatment Day 12 (peak OLZ-induced gain), TZP 5 mg/kg/day by minipump): 6.2%

Cc1scc2c1N(C(=O)CN1CCN(C)CC1)c1ccccc1NC2=O [Telenzepine, 4,9-Dihydro-3-methyl-4-[(4-methyl-1-piperazinyl)acetyl]-10H-thieno[3,4-b][1,5]benzodiazepin-10-one]
half time of interconversion of the two forms [3]: approximately 200 hours | effect on weight gain (main effect of Treatment, 2-way repeated measures ANOVA) [2]: significant reduction in OLZ-induced weight gain
